Test results from patent publication US20250221410A1, “SUBSTITUTED 2-C-AZINES AND SALTS THEREOF, AND USE THEREOF AS HERBICIDAL ACTIVE SUBSTANCES” (BAYER AKTIENGESELLSCHAFT, priority 2022, published 2025).

What was measured:
Format in all cases: in vivo
[1] = test system: ABUTH: Abutilon theophrasti; experiment: Pre-emergence herbicide efficacy at 1280 g/ha, ABUTH; conditions: visual scoring after about 3 weeks vs untreated controls
Method in brief: (§1)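 Weed seeds were sown and covered with soil in pots, then treated on the soil surface with formulated compound (WP or EC, 0.5% additive, 600 L/ha water). Visual % damage relative to untreated pots was rated about 3 weeks later under greenhouse conditions, 0% meaning no effect and 100% plant death.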

[2] = test system: ALOMY: Alopecurus myosuroides; experiment: Pre-emergence herbicide efficacy at 1280 g/ha, ALOMY; conditions: visual scoring after about 3 weeks vs untreated controls
Text: Seeds of mono- and dicotyledonous weed plants were placed in plastic pots in sandy loam soil (doubly sown with one species each of mono- or dicotyledonous weed plants per pot) and covered with soil. The compounds of the invention, formulated in the form of wettable powders (WP) or as emulsion concentrates (EC), were then applied to the surface of the covering soil as aqueous suspension or emulsion with addition of 0.5% additive at a water application rate of 600 litres per hectare (converted). After the treatment, the pots were placed in a greenhouse and kept under good growth conditions for the test plants. After about 3 weeks, the efficacy of the preparations was scored visually in comparison with untreated controls as percentages. For example, 100% activity=the plants have died, 0% activity=like control plants. Tables C1 to C12 below show the effects of selected compounds of the general formula (I) according to Table 1 on various harmful plants and at an application rate corresponding to 1280 g/ha, which were obtained by the trial procedure specified above.

[3] = test system: AMARE: Amaranthus retroflexus; experiment: Post-emergence herbicidal efficacy at 1280 g/ha, AMARE; conditions: rated visually after about 3 weeks vs untreated controls, 100% = plants have died, 0% = like control plants
Method in brief: (§2)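 Greenhouse post-emergence spray: one-leaf stage, 2–3 wk after sowing; WP/EC as aqueous suspension/emulsion + 0.5% additive, 600 L/ha water. Visual % activity vs untreated at ~3 wk; 100% = dead, 0% = as control.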

VERPE: Veronica persica [4] = experiment: Post-emergence herbicidal efficacy at 1280 g/ha, VERPE; conditions: visual rating about 3 weeks after treatment vs untreated controls
Method in brief: as §2

POAAN: Poa annua [5] = experiment: Post-emergence herbicidal efficacy at 1280 g/ha, POAAN; conditions: visual rating about 3 weeks after treatment vs untreated controls
Method in brief: as §2

[6] = test system: ECHCG: Echinochloa crus-galli; experiment: Pre-emergence herbicide efficacy at 1280 g/ha, ECHCG; conditions: visual scoring after about 3 weeks vs untreated controls
Method in brief: as §1

SETVI: Setaria viridis [7] = experiment: Post-emergence herbicidal efficacy at 1280 g/ha, SETVI; conditions: visual rating about 3 weeks after treatment vs untreated controls
Method in brief: as §2

KCHSC: Kochia scoparia [8] = experiment: Post-emergence herbicidal efficacy at 1280 g/ha, KCHSC; conditions: visual rating about 3 weeks after treatment vs untreated controls
Method in brief: as §2

[9] = test system: ALOMY: Alopecurus myosuroides; experiment: Post-emergence herbicidal efficacy at 1280 g/ha, ALOMY; conditions: rated visually after about 3 weeks vs untreated controls, 100% = plants have died, 0% = like control plants
Method: (§3) Seeds of mono- and dicotyledonous weed plants were placed in plastic pots in sandy loam soil (doubly sown with in each case one species of mono- or dicotyledonous weed plants per pot), covered with soil and cultivated in a greenhouse under controlled growth conditions. 2 to 3 weeks after sowing, the test plants were treated at the one-leaf stage. The compounds of the invention, formulated in the form of wettable powders (WP) or as emulsion concentrates (EC), were applied to the green parts of the plants as aqueous suspension or emulsion with addition of 0.5% additive at a water application rate equivalent to 600 litres per hectare. After the test plants had been kept in the greenhouse under optimum growth conditions for about 3 weeks, the activity of the preparations was rated visually in comparison to untreated controls. For example, 100% activity=the plants have died, 0% activity=like control plants. Tables A1 to A12 below show the effects of selected compounds of the general formula (I) according to Table 1 on various harmful plants and at an application rate corresponding to 1280 g/ha, which were obtained by the trial procedure specified above.

STEME: Stellaria media [10] = experiment: Pre-emergence herbicide efficacy at 1280 g/ha, STEME; conditions: visual scoring vs untreated controls
Method in brief: as §1

STEME: Stellaria media [11] = experiment: Post-emergence herbicidal efficacy at 1280 g/ha, STEME; conditions: visual rating about 3 weeks after treatment vs untreated controls
Method in brief: as §2

LOLRI: Lolium rigidum = experiment: Post-emergence herbicidal efficacy at 1280 g/ha, LOLRI; conditions: visual rating about 3 weeks after treatment vs untreated controls
Method: as §3

[12] = test system: DIGSA: Digitaria sanguinalis; experiment: Pre-emergence herbicide efficacy at 1280 g/ha, DIGSA; conditions: visual scoring after about 3 weeks vs untreated controls
Method in brief: as §1

KCHSC: Kochia scoparia [13] = experiment: Pre-emergence herbicide efficacy at 1280 g/ha, KCHSC; conditions: visual scoring after about 3 weeks vs untreated controls
Method in brief: as §1

VERPE: Veronica persica [14] = experiment: Pre-emergence herbicide efficacy at 1280 g/ha, VERPE; conditions: visual scoring vs untreated controls
Method in brief: as §1

POAAN: Poa annua [15] = experiment: Pre-emergence herbicide efficacy at 1280 g/ha, POAAN; conditions: visual scoring after about 3 weeks vs untreated controls
Method in brief: as §1

[16] = test system: AMARE: Amaranthus retroflexus; experiment: Pre-emergence herbicide efficacy at 1280 g/ha, AMARE; conditions: visual scoring after about 3 weeks vs untreated controls
Method in brief: as §1

[17] = test system: ABUTH: Abutilon theophrasti; experiment: Post-emergence herbicidal efficacy at 1280 g/ha, ABUTH; conditions: rated visually after about 3 weeks vs untreated controls, 100% = plants have died, 0% = like control plants
Method in brief: as §2

[18] = test system: ECHCG: Echinochloa crus-galli; experiment: Post-emergence herbicidal efficacy at 1280 g/ha, ECHCG; conditions: rated visually after about 3 weeks vs untreated controls, 100% = plants have died, 0% = like control plants
Method in brief: as §2

SETVI: Setaria viridis [19] = experiment: Pre-emergence herbicide efficacy at 1280 g/ha, SETVI; conditions: visual scoring vs untreated controls
Method in brief: as §1

[20] = test system: DIGSA: Digitaria sanguinalis; experiment: Post-emergence herbicidal efficacy at 1280 g/ha, DIGSA; conditions: rated visually after about 3 weeks vs untreated controls, 100% = plants have died, 0% = like control plants
Method in brief: as §2

POLCO = experiment: Pre-emergence herbicide efficacy at 80 g/ha, POLCO; conditions: Polygonum convolvulus, scored visually after about 3 weeks
Method in brief: (§4)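 Pre-emergence treatment: aqueous suspension or emulsion (0.5% additive, 600 l/ha water) applied at 80 g/ha to the covering soil over sown seeds. Visual percent-damage rating against untreated plants followed after about 3 greenhouse weeks, 0% meaning unaffected and 100% meaning dead.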

VIOTR: Viola tricolor [21] = experiment: Pre-emergence herbicide efficacy at 80 g/ha, VIOTR; conditions: scored visually after about 3 weeks
Text: Seeds of monocotyledonous and dicotyledonous weed plants and crop plants were placed in plastic or organic planting pots and covered with soil. The compounds of the invention, formulated in the form of wettable powders (WP) or as emulsion concentrates (EC), were then applied to the surface of the covering soil as aqueous suspension or emulsion with addition of 0.5% additive at a water application rate equivalent to 600 l/ha. After the treatment, the pots were placed in a greenhouse and kept under good growth conditions for the test plants. After about 3 weeks, the efficacy of the preparations was scored visually in comparison with untreated controls as percentages. For example, 100% activity=the plants have died, 0% activity=like control plants. Tables D1 to D12 below show the effects of selected compounds of the general formula (I) according to Table 1 on various harmful plants and an application rate corresponding to 80 g/ha, which were obtained by the experimental procedure mentioned above.

VIOTR: Viola tricolor [22] = experiment: Post-emergence herbicidal efficacy at 80 g/ha, VIOTR; conditions: visual rating about 3 weeks after treatment vs untreated controls
Method: Seeds of monocotyledonous and dicotyledonous weeds and crop plants were placed in sandy loam in plastic or organic planting pots, covered with soil and cultivated in a greenhouse under controlled growth conditions. 2 to 3 weeks after sowing, the test plants were treated at the one-leaf stage. The compounds of the invention, formulated in the form of wettable powders (WP) or as emulsion concentrates (EC), were then sprayed onto the green parts of the plants as aqueous suspension or emulsion with addition of 0.5% additive at a water application rate of 600 l/ha (converted). After the test plants had been kept in the greenhouse under optimum growth conditions for about 3 weeks, the activity of the preparations was rated visually in comparison to untreated controls. For example, 100% activity=the plants have died, 0% activity=like control plants. Tables B1 to B10 below show the effects of selected compounds of the general formula (I) according to Table 1 on various harmful plants and an application rate corresponding to 80 g/ha, which were obtained by the experimental procedure mentioned above.

[23] = test system: AMARE: Amaranthus retroflexus; experiment: Pre-emergence herbicide efficacy at 80 g/ha, AMARE; conditions: scored visually after about 3 weeks
Method in brief: as §4

[24] = test system: AMARE: Amaranthus retroflexus; experiment: Post-emergence herbicidal efficacy at 80 g/ha, AMARE; conditions: visual rating about 3 weeks after treatment vs untreated controls
Method in brief: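 Greenhouse plants grown in sandy loam were sprayed at the one-leaf stage, 2 to 3 weeks after sowing, with WP or EC formulations in water containing 0.5% additive at 600 l/ha. Visual rating against untreated controls came about 3 weeks later (100% = dead, 0% = as control).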

[25] = test system: MATIN: Matricaria inodora; experiment: Post-emergence herbicidal efficacy at 1280 g/ha, MATIN; conditions: visual rating about 3 weeks after treatment vs untreated controls
Method: as §3

[26] = test system: MATIN: Matricaria inodora; experiment: Pre-emergence herbicide efficacy at 1280 g/ha, MATIN; conditions: visual scoring after about 3 weeks vs untreated controls
Method in brief: as §1

Row | Compound | Pre-emergence efficacy against ABUTH [1] [%] | Post-emergence efficacy at 1280 g/ha against AMARE in % [3] [%] | Post-emergence efficacy against VERPE (VERPE: Veronica persica [4]) [%] | Post-emergence efficacy against POAAN (POAAN: Poa annua [5]) [%] | Pre-emergence efficacy against ECHCG [6] [%] | Post-emergence efficacy against SETVI (SETVI: Setaria viridis [7]) [%] | Post-emergence efficacy against KCHSC (KCHSC: Kochia scoparia [8]) [%] | Pre-emergence efficacy against STEME in % (STEME: Stellaria media [10]) [%] | Post-emergence efficacy against STEME (STEME: Stellaria media [11]) [%] | Pre-emergence efficacy against DIGSA [12] [%] | Pre-emergence efficacy against KCHSC (KCHSC: Kochia scoparia [13]) [%] | Pre-emergence efficacy against VERPE in % (VERPE: Veronica persica [14]) [%] | Pre-emergence efficacy against POAAN (POAAN: Poa annua [15]) [%] | Pre-emergence efficacy against AMARE [16] [%] | Post-emergence efficacy at 1280 g/ha against ABUTH in % [17] [%] | Post-emergence efficacy at 1280 g/ha against ECHCG in % [18] [%] | Pre-emergence efficacy against SETVI in % (SETVI: Setaria viridis [19]) [%] | Post-emergence efficacy at 1280 g/ha against DIGSA in % [20] [%] | Post-emergence efficacy against MATIN [25] [%] | Pre-emergence efficacy against MATIN [26] [%] | further results
1 | Cc1cccc(Oc2ncc(Cl)cc2F)c1Cc1ncc(Cl)cn1 [Example 1-66] | 100 | 100 | 100 | 100 | 100 | 100 | 100 | 100 | 100 | 100 | 100 | 100 | 100 | 100 | 100 | 100 | 100 | 100 |  |  | Pre-emergence efficacy against ALOMY [2]: 90%; Post-emergence efficacy at 1280 g/ha against ALOMY in % [9]: 90%; Post-emergence efficacy against LOLRI (LOLRI: Lolium rigidum): 90%
2 | N#Cc1cccc(Cc2ncc(F)cn2)c1-n1cc(C(F)(F)F)cn1 [Example 1-131] | 100 | 100 | 100 | 100 | 100 | 90 | 100 | 100 | 100 | 100 | 100 | 100 | 90 | 100 | 100 | 100 | 100 | 90 | 90 | 100 | Pre-emergence efficacy against POLCO in % (POLCO): 80%; Pre-emergence efficacy against VIOTR in % (VIOTR: Viola tricolor [21]): 90%; Post-emergence efficacy against VIOTR (VIOTR: Viola tricolor [22]): 90%; Pre-emergence efficacy against AMARE in % [23]: 100%; Post-emergence efficacy against AMARE [24]: 100%
3 | Fc1cnc(Cc2ccccc2Oc2ncc(Cl)cn2)nc1 [Example 1-70] | 90 | 90 | 90 |  | 90 |  |  | 100 | 90 | 100 | 100 | 90 | 90 | 100 | 100 |  | 100 |  | 90 | 100 | 
